Assay results: PubChem BioAssay (NCI)
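48-hour exposure; five concentrations; linearly interpolated endpoints. GI50 marks 50% less growth. TGI: concentration producing complete growth inhibition.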

Key:
Assay in all cases: DTP human tumour cell line panel, 48 h
[1] = tested on: A498 renal
[2] = tested on: EKVX NSCLC
[3] = tested on: HS 578T breast
[4] = tested on: HT29 colon
[5] = tested on: LOX IMVI melanoma
[6] = tested on: MALME-3M melanoma
[7] = tested on: NCI-H23 lung
[8] = tested on: OVCAR-4 ovarian
[9] = tested on: SF-268 CNS
[10] = tested on: SR leukemia

| SMILES | GI50 [1] [µM] | TGI [1] [µM] | GI50 [2] [µM] | TGI [2] [µM] | GI50 [3] [µM] | TGI [3] [µM] | GI50 [4] [µM] | TGI [4] [µM] | GI50 [5] [µM] | TGI [5] [µM] | GI50 [6] [µM] | TGI [6] [µM] | GI50 [7] [µM] | TGI [7] [µM] | GI50 [8] [µM] | TGI [8] [µM] | GI50 [9] [µM] | TGI [9] [µM] | TGI [10] [µM] |
| --- | --- | --- | --- | --- | --- | --- | --- | --- | --- | --- | --- | --- | --- | --- | --- | --- | --- | --- | --- |
| O=C1c2ccccc2-c2c1c1ccccc1c(=O)n2CCCn1ccnc1 | 2.74 | 14.1 | 9.09 | > 100 | 7.92 | 94.7 | 1.22 | 6.27 | 0.924 | 4.33 | 2.45 | 5.75 | 1.84 | 6.05 | 2.29 | > 100 | 3.64 | > 100 |  |
| CC1(C)C2C=CC1C(=O)CC2 (stereo not drawn) |  | > 100 |  | > 100 |  |  |  | > 100 |  | > 100 |  | > 100 |  | > 100 |  | > 100 |  | > 100 |  |
| O=c1c(-c2ccccc2)coc2cc(OC/C(=N/O)c3ccccc3)ccc12 | 16.5 | 33.4 | 13.4 | 48.5 | 34.4 | 86 | 14.7 | 53.2 | 18.4 | 37.4 | 10.4 | 28.3 | > 100 | > 100 | 14.9 | 47.2 | 13.5 | 28.7 |  |
| CN(C)CC/[N+]([O-])=C(/c1ccccc1)C12CC3CC(CC(C3)C1)C2 |  | 32.6 |  | 38.1 |  |  |  | 23.8 |  | 31.2 |  | 55.2 |  | 37.4 |  |  |  | 35.9 | 43.9 |
| O=C(O)CCc1nn2c(nc1=O)sc1ccc3ccccc3c12 |  |  |  | > 100 |  |  |  | > 100 |  | > 100 |  | > 100 |  | > 100 |  | > 100 |  | > 100 | > 100 |
| CC(=O)C1=C(O)CC2CC3c4[nH]c5ccccc5c4CCN3CC2C1 (stereo not drawn) |  | > 100 |  | > 100 |  |  |  | > 100 |  | > 100 |  | > 100 |  | > 100 |  | > 100 |  | > 100 | 58.5 |
| Cc1cccc(C)c1NC(=O)C(=O)Nn1c(NN)nc2ccccc2c1=O |  | > 100 |  | > 100 |  |  |  | > 100 |  | > 100 |  | > 100 |  | > 100 |  | > 100 |  | > 100 | > 100 |
| N#CC1(C#N)C(C#N)(C#N)C12CCCCCC2 |  | 34.1 |  | 31.9 |  |  |  | 34.6 |  | 32.3 |  | 31 |  | 31.3 |  | 30 |  | 48.9 | 75.2 |
| COc1ccc(C2ON(c3cccc(C)n3)CC=C2C)cc1 (stereo not drawn) |  |  |  | > 100 |  |  |  | > 100 |  | > 100 |  | > 100 |  | > 100 |  | > 100 |  | > 100 | 99.2 |
| NC(N)=NS(=O)(=O)c1ccc(Nc2c3ccccc3nc3c(C(=O)Nc4ccc(S(N)(=O)=O)cc4)cccc23)cc1 |  | > 100 |  | > 100 |  |  |  | > 100 |  | > 100 |  | > 100 |  | > 100 |  | > 100 |  | > 100 |  |
| C=CCC1C(=O)CC2(C)CC(=O)C(CC=C)C12C (stereo not drawn) |  |  |  | > 100 |  |  |  | > 100 |  | > 100 |  | > 100 |  | > 100 |  | > 100 |  | > 100 | > 100 |
| Cn1cc(C(=O)C[n+]2ccccc2)c2ccccc21 |  | 92.4 |  | 88.3 |  |  |  | > 100 |  | > 100 |  | > 100 |  | > 100 |  | > 100 |  |  | > 100 |
| O=c1c2cc(Cl)ccc2sc2cccc(Cl)c12 |  | > 100 |  | > 100 |  |  |  | > 100 |  | > 100 |  |  |  | > 100 |  | > 100 |  | > 100 | > 100 |
| Clc1ccc(C(n2cc(Br)cn2)n2cc(Br)cn2)cc1 |  | 33.1 |  | 38.9 |  |  |  | 26.9 |  |  |  | 31.7 |  | 42.6 |  | 26.4 |  | 33.4 |  |
| CCOc1ccc2nc(NC(=O)C(=O)C(c3cnc4ccccc4n3)[N+](=O)[O-])sc2c1 (stereo not drawn) |  | > 100 |  | > 100 |  | > 100 |  | > 100 |  | > 100 |  | > 100 |  | > 100 |  | > 100 |  | > 100 |  |
| CCN(CC)c1ccc(N=Nc2ccc(-c3nc4ccc[n+](C)c4o3)cc2)cc1 |  | 35.9 |  | 26.7 |  |  |  | 24.3 |  | 18.5 |  | 4.31 |  | 28.6 |  | 25.2 |  | 31.4 | 20.9 |
| COc1cccc(NC(=O)/C(Cc2nc3ccccc3nc2C)=N/NC(=O)C[n+]2ccccc2)c1 |  | > 100 |  | > 100 |  |  |  | > 100 |  | > 100 |  | > 100 |  | > 100 |  | > 100 |  | > 100 | > 100 |
| O=C(NC12CC3CC(CC(C3)C1)C2)C(=O)c1c[nH]c2ccccc12 |  |  |  | 32.2 |  |  |  | 15 |  | 25.8 |  | 28.3 |  | 29.6 |  | 31.4 |  | 30.4 | 48.7 |
| CCOC(=O)c1[nH]c(COC(C)=O)c2c1CCCCCCCCCC2 |  | > 100 |  | > 100 |  |  |  | > 100 |  | > 100 |  | > 100 |  | > 100 |  | > 100 |  | > 100 | > 100 |
| COC(=O)Nc1nc2ccc(Br)cc2[nH]1 |  | > 100 |  | > 100 |  |  |  | 37.4 |  | > 100 |  | > 100 |  | 80.7 |  | > 100 |  | > 100 | > 100 |
| CC1OC(n2cc(F)c(=O)[nH]c2=O)C=CC1=O (stereo not drawn) |  | 36.9 |  |  |  |  |  | 49.3 |  | 28.7 |  | 35.3 |  | > 100 |  | 33.6 |  | 38.7 | 55.8 |
| CN(C)c1ccc(/C=c2\sc3nc4ccccc4n3c2=O)cc1 |  | > 100 |  | > 100 |  |  |  | > 100 |  | > 100 |  | > 100 |  | > 100 |  | > 100 |  | > 100 |  |
